Reference: US20040076954A1, “Genomics-driven high speed cellular assays, development thereof, and collections of cellular reporters” (IRM, LLC, priority 2001, published 2004)

Legend:
[1] = system: Mouse macrophage cell line RAW264.7; experiment: Antibiotic selection of transfected RAW264.7 cells; type: cell-based; conditions: transfected RAW cells
Procedure: Mouse macrophage cell line RAW264.7 from the ATCC was used for reporter gene assays. RAW cells were cultured at 37° C. in Dulbecco's modified Eagle medium (GibcoBRL), supplemented with 10% defined fetal bovine serum (low endotoxin, Hyclone). Transient transfection was carried out in 6 well plates with SuperFect Transfection Reagent (Qiagen) using the protocol provided by the supplier. In brief, 6×10^5 cells were seeded in each well the day before transfection. 2 μg of DNA and 10 μl of SuperFect reagent were added to the cells. For the purposed of selecting stable cell lines, vectors containing antibiotic resistant genes (e.g. hygromycin, puromycin and blasticidin) were also included at a ratio of 1:5 or 1:10 to the reporter DNA. 48 hours post-transfection, the cells were transferred into 10 cm dishes. An antibiotic was added at 150 μg/ml of hygromycin, 400 ng/ml of puromycin, or 3 μg/ml of blasticidin. […] Two weeks later, the cells which sustained antibiotic selection were seeded into three 96 well plates at the density of 0.3 cell/well. After 3-4 weeks, 44 single clones each of MALH (hygromycin) and MALB (blasticidin) were harvested and assayed. Pools of MALH or MALB were also combined for population experiments. The total selection time was 5-6 weeks.

[2] = system: HepG2 (human hepatoma cells); experiment: Gene chip (Affymetrix) expression profiling of HGF-treated hepatocyte cells; type: cell-based; conditions: HepG2, 75 ng/ml HGF 4 hours vs untreated
Procedure: A method assessing the responsiveness of gene transcript to Hepatocyte Growth Factor (HGF) in a human hepatocyte cell line is exemplified.
Human hepatocyte cells, HepG2 (human hepatoma cells ATCC accession no. HB-8065), were plated at 8×10^5 cells per ml in a 4 separate wells of a 6-well plate and incubated overnight at 37° C., 5% CO2. Eighteen hours after plating, 2 wells of cells were treated with 75 ng/ml of HGF continuously for 4 hours, while two samples were left untreated. Cells were harvested by 1×PBS wash, scraped into a 15 ml conical tube and placed on ice. Samples were centrifuged to pellet the cells, flash frozen on dry ice and submitted for RNA extraction.
The following protocol was used to isolate total RNA from the 2 untreated and 2 treated samples:
The following protocol was used to generate cDNA then cRNA from the total RNA preparation:
The following protocol was used to hybridize the cRNA to gene chips (Affymetrix):
Following the hybridization, the chips are analyzed for relative fluorescence intensity corresponding to each set of oligonucleotides. The location of each oligonucleotide and the gene it represents on the array is known. Using, for example, Microsoft Excel, a list of each oligonucleotide, corresponding gene and relative intensity are recorded and saved. The data sets for treated and untreated are compared side-by-side for average-fold change. The resulting list is parsed by magnitude fold-change and can be represented as text (Excel), or visually (Gene-Spring or Tree-view).
The following details the results of a chip study. […] The list begins with the greatest fold induction (FC) and ends with greatest fold repression.

## CN(CC[C@H](N)CC(=O)N[C@H]1C=C[C@H](n2ccc(N)nc2=O)O[C@@H]1C(=O)O)C(=N)N [blasticidin]
[1]; 3 μg/ml blasticidin
  cell death within 3 days of antibiotic selection: Massive cell death

## COc1ccc(C[C@H](N)C(=O)N[C@H]2[C@@H](O)[C@H](n3cnc4c(N(C)C)ncnc43)O[C@@H]2CO)cc1 [puromycin]
[1]; 400 ng/ml puromycin
  cell death within 3 days of antibiotic selection: not

## Hepatocyte Growth Factor [HGF]
[2]
  FC (fold change) 277_at myeloid cell differentiation protein (MCL1) (L08246): 6 fold
  FC (fold change) 529_at dual-specificity protein phosphatase (U15932): 5 fold
  FC (fold change) 660_at mitochondrial 1,25-dihydroxyvitamin D3 24-hydroxylase (L13286): 9 fold
  FC (fold change) 1237_at IEX-1 radiation-inducible immediate-early gene (S81914): 8 fold
  FC (fold change) 1379_at HUMECK protein tyrosine kinase (M59371): 8 fold
  FC (fold change) 1890_at TGF-beta superfamily protein (AB000584): 5 fold
  FC (fold change) 2057_g_at fibroblast growth factor (FGF) receptor-1 (M34641): 5 fold
  FC (fold change) 31888_s_at IPL (AF001294): 14 fold
  FC (fold change) 32786_at jun-B (X51345): 7 fold
  FC (fold change) 33146_at myeloid cell differentiation protein (MCL1) (L08246): 6 fold
  FC (fold change) 34476_r_at epiregulin (D30783): 15 fold
  FC (fold change) 34898_at amphiregulin (AR) (M30704): 13 fold
  FC (fold change) 35372_r_at beta-thromboglobulin-like protein (M17017): 8 fold
  FC (fold change) 35454_at KIAA0450 protein (AB007919): 5 fold
  FC (fold change) 35597_at C8FW phosphoprotein (AJ000480): 7 fold
  FC (fold change) 36097_at transcription factor ETR101 (M62831): 5 fold
  FC (fold change) 36324_at A2b adenosine receptor (X68487): 6 fold
  FC (fold change) 36344_at proteinase-activated receptor-2 (U34038): 7 fold
  FC (fold change) 36345_g_at proteinase-activated receptor-2 (U34038): 8 fold
  FC (fold change) 36543_at placental tissue factor (J02931): 7 fold
  FC (fold change) 36711_at novel MAFF LIKE protein (AL021977): 8 fold
  FC (fold change) 36742_at putative zinc finger protein (ZNFB7) (U34249): 5 fold
  FC (fold change) 37680_at gravin (U81607): 7 fold
  FC (fold change) 38125_at beta-migrating plasminogen activator inhibitor I (M14083): 13 fold
  FC (fold change) 38247_at proteinase activated receptor-2 mRNA, 3UTR (U67058): 9 fold
  FC (fold change) 38772_at CYR61 (Y11307): 9 fold
  FC (fold change) 39105_at vasodilator-stimulated phosphoprotein (VASP) (Z46389): 11 fold
  FC (fold change) 39248_at za55a01.s1 cDNA (N74607): 6 fold
  FC (fold change) 40385_at chemokine exodus-1 mRNA (U64197): 19 fold
  FC (fold change) 40614_at SHB (X75342): 8 fold
  FC (fold change) 41193_at DUSP6 (AB013382): 6 fold
  FC (fold change) 41524_at inositol polyphosphate 1-phosphatase (L08488): 6 fold
[2]; negative = repression
  FC (fold change) 1974_s_at p53 cellular tumor antigen (X02469): −5 fold
  FC (fold change) 2089_s_at H06628 similar to ERBB-3 receptor protein-tyrosine kinase precursor: −5 fold
  FC (fold change) 32787_at epidermal growth factor receptor (HER3) (M34309): −8 fold
  FC (fold change) 36048_at HRIHFB2436 (AB015342): −5 fold
  FC (fold change) 37487_at KIAA1093 protein (AB029016): −5 fold
